According to PMC9161444, “In-Membrane Nanostructuring of Cationic Amphiphiles Affects Their Antimicrobial Efficacy and Cytotoxicity: A Comparison Study between a De Novo Antimicrobial Lipopeptide and Traditional Biocides” (Langmuir, 2022):
Values after ≈ are worked out from the molar mass of the structure shown. Residues, ends and D or L forms follow the SMILES beside them. No end group written: not given here. *: point of attachment. Myristoyl = CCCCCCCCCCCCCC(=O)*

Assays:
[1] = previous findings by Lu et al.; cited from earlier work
From the text: From the best fitted surface tension parameters (listed in Table S2), the area per molecule (APM) could be calculated from eq 4 for each amphiphile at its respective CAC. […] This is in line with the previous findings by Lu et al., which stated that APMs of C10TAB, C12TAB, C14TAB, C16TAB, and C18TAB adsorbed on the surface of water were 55 ± 3, 50 ± 2, 48 ± 3, 43 ± 3, and 43 ± 3 Å^2, respectively.[29]−[33] Each lipopeptide molecule occupied around 79 ± 10 Å^2 at ...

[2] = test system: NIH 3T3 fibroblasts cells (3T3 cells, ATCC-1658); assay type: cell-based; conditions: 24 h
Experimental: (§1) Human dermal fibroblasts cells (adult, HDFa cells) and NIH 3T3 fibroblasts cells (3T3 cells, ATCC-1658) were cultured at 37 °C in Dulbecco’s modified Eagle medium (ATCC30-2002, added with 10% heat-inactivated fetal bovine serum) with a continuous supply of CO2 at a 5% level. MTT assays were carried out to examine in vitro cytotoxicity of the amphiphiles.[22] Cells were first inoculated in flat-bottom 96-well plates, rendering 8 × 10^3 cells in 100 μL of medium for each well, and were incubated for 24 h. The cells were mixed with 100 μL of a solution of an amphiphile with 2 times the selected concentrations. Cells were then exposed to the solutions of each amphiphile for 24 h, after which 10 μL of 5 mg/mL MTT solution was added into each well, and the reaction was allowed for 2 h. 200 μL of dimethyl sulfoxide was then added to each well to dissolve the transformed MTT formazan. Light absorbance of the samples was measured using a Thermo Scientific Varioskan LUX at 570 nm. Cell samples 100% viable and 100% dead were employed as the positive control and negative control, respectively. Dose response curves were obtained by applying sigmoidal function fittings to obtain 50% effective concentrations (EC50).

[3] = test system: Human dermal fibroblasts cells (adult, HDFa cells); assay type: cell-based; conditions: 24 h
Experimental: as §1

S. aureus (ATCC 6538) = assay type: cell-based, Staphylococcus aureus; conditions: ATCC 6538, 24 h
Experimental: (§2) E. coli (ATCC 25922), S. aureus (ATCC 6538), and C. albicans SC5314 (ATCC MYA-2876) were purchased from the American Type Culture Collection (ATCC). The two bacterial strains, E. coli and S. aureus, were cultured in Mueller Hinton broth at 37 °C; while the yeast strain, C. albicans, was grown in RPMI 1640 medium at 30 °C. The microdilution method was employed to determine MICs of the amphiphiles against the microorganism strains listed above.[21] Solutions of lipopeptides and biocides were half-diluted serially in 96-well plates using PBS buffer containing 137 mM NaCl, 2.7 mM KCl, 8.1 mM Na2HPO4, and 1.9 mM KH2PO4 for E. coli and S. aureus and using RPMI 1640 for C. albicans. Overnight incubations of the strains, in each respective growth medium, were then inoculated into each well, giving final concentrations of 10^6 CFU/mL for E. coli and S. aureus and 10^5 CFU/mL for C. albicans. Culture media without microorganisms and amphiphiles were employed as positive controls, while fresh microorganism cultures without amphiphiles were used as negative controls. Each plate has both positive controls and negative controls. The plates were then incubated at an appropriate temperature (stated above) for 24 h for the bacterial strains and 48 h for the yeast strain. MICs of each sample were first determined by eye. A more quantitative analysis was carried out by measuring optical densities at 600 nm (OD600) of each well using a Sunrise absorbance microplate reader (Tecan Group Ltd.). Inhibitory ratios (IRs) of each sample at a given concentration against a specific strain, denoted as IRi, were calculated by IRi = (OD600,negative control – OD600,i)/(OD600,negative control – OD600,positive control) × 100%. All experiments were repeated at least three times with each group containing three replicates. To better analyze concentration–IR relationships, sigmoidal function fittings were employed to generate the best fitted dose response curve for each situation.

[4] = test system: C. albicans SC5314 (ATCC MYA-2876); assay type: cell-based, Candida albicans; conditions: SC5314, 48 h
Experimental: as §2

E. coli (ATCC 25922) = assay type: cell-based, Escherichia coli; conditions: ATCC 25922, 24 h
Experimental: as §2

hRBCs = assay type: cell-based, human
Experimental: hRBCs were purchased from Rockland Immunochemical Inc. Hemolytic assays were performed in 96-well plates in an environment of PBS, as previously described.[13],[23] Amphiphiles were half diluted serially at first, resulting in 100 μL of solution in each well, and mixed subsequently with 100 μL of 4% hRBC suspension. Wells filled by PBS mixed with hRBC were employed as positive controls, while hRBCs with added 0.1% Triton X-100 were negative controls. After incubating at 37 °C for 1 h, the plates were centrifuged at 1000 times gravity for 5 min. The supernatants in each well, which contained the released hemoglobin, were transferred to another plate, and their optical density at 450 nm (OD450) was measured using an absorbance microplate reader. The percentage of hemolysis H for each sample at a certain concentration c was obtained by Hc = (OD450,c – OD450,positive control)/(OD450,negative control – OD450,positive control) × 100%. Figures for percentage leakage against concentration for each sample were plotted to determine the approximate range of 50% hemolysis, and the relevant concentration was the half maximal effective concentration (EC50) of the sample. Each experiment was repeated at least three times with each containing three replicates. The dose–response curves were again obtained by applying sigmoidal functional fits to obtain the EC50 values.

[5] = Analytical RP-HPLC retention time as measure of hydrophobicity; assay type: physicochemical; conditions: gradient of eluents
Experimental: Lipopeptide C14KKGGII was synthesized in the form of acyl chain hydrogenated h-C14KKGGII and acyl chain deuterated d-C14KKGGII. The lipopeptide samples were prepared using a Liberty Blue automated microwave peptide synthesizer, where the standard Fmoc solid-phase strategy was followed. Dimethylformamide (DMF) was used as the solvent during the whole process. Rink-amide resin was employed as a loading anchor to synthesize C-terminal amidated lipopeptides and was swelled for 5 min in DMF before synthesis. After the removal of Fmoc groups on resins, amino acids (Fmoc-Gly-OH, Fmoc-Ile-OH, and Fmoc-Lys-OH in this study) were coupled to the solid phase in succession from the C-terminal to the N-terminal, assisted by the addition of ethyl 2-cyano-2-(hydroxyimino)acetate (OXYMA) and N,N′-diisopropylcarbodiimide (DIC) at 90 °C for 4 min. Fmoc protecting groups on amino acids were removed before further linking using 20% piperidine in DMF. Hydrogenated or deuterated myristic acid was added onto the chain in the last step using the same method. A cleavage mixture of trifluoroacetic acid (TFA), water, and tri-isopropylsilane (TIS) (94/4/2, v/v/v) was employed for the reaction with lipopeptide-loaded resins for 3 h at ambient temperature, removing the side chain protecting groups on the amino acids and releasing lipopeptides from the resin beads. […]

## CCCCCCCCCC[N+](C)(C)C.[Br-] [C10TAB]
[1]
  APM adsorbed on the surface of water: 55 ± 3 Å^2

## CCCCCCCCCCCCCC(=O)N[C@@H](CCCCN)C(=O)N[C@@H](CCCCN)C(=O)NCC(=O)NCC(=O)N[C@H](C(=O)N[C@H](C(N)=O)[C@@H](C)CC)[C@@H](C)CC [C14KKGGII, CH3(CH2)12CO-Lys-Lys-Gly-Gly-Ile-Ile-NH2] (Myristoyl-KKGGII-NH2)
[2]
  EC50: 66 ± 6 µM
[3]
  EC50: 110 ± 30 µM
S. aureus (ATCC 6538)
  MIC, S. aureus: 9 ± 3 µM (≈ 7.42 µg/mL)
[4]
  MIC, C. albicans: 12 ± 2 µM (≈ 9.89 µg/mL)
E. coli (ATCC 25922)
  MIC, E. coli: 16 ± 6 µM (≈ 13.2 µg/mL)
hRBCs
  concentration at which hemolysis starts: 16 µM
hRBCs; 1 h
  EC50: 180 ± 30 µM

## CCCCCCCCCCCCCCCC[N+](C)(C)C.[Br-] [C16TAB]
[1]
  APM adsorbed on the surface of water: 43 ± 3 Å^2

## CCCCCCCCCCCCCCCCCC[N+](C)(C)C.[Br-] [C18TAB]
[1]
  APM adsorbed on the surface of water: 43 ± 3 Å^2

## CD3(CD2)12CO-KKGGII-NH2 [dC14KKGGII, acyl chain deuterated C14KKGGII]
[5]
  RP-HPLC retention time (comparison of hydrophobicity): 25.6 min

## KKGGII-NH2 [KKGGII, KKGGII-NH2]
[5]
  RP-HPLC retention time (comparison of hydrophobicity): 15.4 min
